# Source: patent US11976054B2, “Amide derivative and preparation method therefore and use thereof in medicine” (Chengdu Baiyu Pharmaceutical Co., Ltd., priority 2019, dated 2024)
# Legend:
# [1] = Pharmacokinetic analysis of compounds in rats; assay type: in vivo, SD rats; details: for F %: po 10 mg/kg vs iv 1 mg/kg
# Experimental: Healthy adult SD rats weighing 180-220 g were fasted (free access to water) overnight and divided into tail vein administration group and intragastric administration group. The tail vein administration group was subjected to blood collection of 0.1 mL from orbital venous plexus before the administration and 5 min, 15 min, 0.5 h, 1 h, 2 h, 4 h, 8 h, 12 h and 24 h after the administration, and plasma was separated out by centrifugation at 4° C. for 5 min and stored at −20° C. for test. The intragastric administration group was subjected to blood collection of 0.1 mL from orbital venous plexus before the administration and 5 min, 15 min, 0.5 h, 1 h, 2 h, 4 h, 8 h, 12 h and 24 h after the administration, and the subsequent treatment procedures were the same as those of the tail vein injection group. The concentration of parent drug in the plasma was determined by LC-MS/MS.
# [2] = tested on: Human monocyte cell line THP-1; test: Detection of THP-1 cell pyroptosis (Caspase-Glo 1 Inflammasome Assay); assay type: cell-based; details: 20 nM PMA 48 h, 1 μg/mL LPS, compound 3 h
# Experimental: Human monocyte cell line THP-1 (ATCC® TB-202TM) was cultured in RPMI-1640 culture medium containing […], 1 mM pyruvic acid, 0.05 mM β-mercaptoethanol and 10% double antibody under the culture conditions of 37° C. and […].
# Cell counting was performed, THP-1 cells were seeded into a 96-well plate at 50000 per well, and 20 nM PMA was added for inducing at 37° C./5% CO2 for 48 h. The culture medium was then discarded, and 100 μL of serum-free RPMI-1640 medium containing 1 μg/mL LPS was added. 5 μL of compound or solvent control was added and 3-fold diluted in gradient from a maximum concentration of 10 μM, and 10 gradient concentrations were set. The mixtures were incubated at 37° C./5% CO2 for 3 h. After the incubation, the mixtures were centrifuged at 300 g for 5 min, and the culture medium was discarded. Pyroptosis assay was performed according to specific steps described in instructions of Caspase-Glo® 1 Inflammasome Assay kit. IC50 was calculated using GraphPad Prism7.0 software.
# [3] = SD rats, iv (tail vein), 1 mg/kg, plasma
# [4] = SD rats, po (intragastric), 10 mg/kg, plasma
# [5] = Homo sapiens, THP-1, THP-1 pyroptosis
molecule,measurement,setting,value
"C[C@@H](c1ccc2c(c1NC(=O)NS(=N)(=O)c1cc(C(C)(C)O)co1)CC2)C1CC1 (mixture of isomers) [Compound 38-1, RS- and SS-N-((3-((R)-1-cyclopropylethyl)bicyclo[4.2.0]octa-1(6),2,4-trien-2-yl)carbamoyl)-4-(2-hydroxypropan-2-yl)furan-2-sulfonimidamide]",AUC,[1]; [3],2.112 µg·h/mL
same,Cl,[1]; [3],0.492 L/h/kg
same,Vss,[1]; [3],0.679 L/kg
same,t1/2,[1]; [3],2.2 h
same,F %,[1]; SD rats,184%
same,AUC,[1]; [4],38.823 µg·h/mL
same,Cmax,[1]; [4],13.267 µg/mL
same,t1/2,[1]; [4],3.1 h
same,IC50,[2]; THP-1 pyroptosis,≤ 0.1 µM
"C[C@@H](c1ccc2c(c1NC(=O)NS(=N)(=O)c1cc(C(C)(C)O)co1)CCC2)C1CC1 (mixture of isomers) [Compound 6-2, (RS, RC)- and (SS, RC)-N-((5-(-1-cyclopropylethyl)-2,3-dihydro-1H-inden-4-yl)carbamoyl)-4-(2-hydroxypropan-2-yl)furan-2-sulfonimidamide]",AUC,[1]; [3],1.657 µg·h/mL
same,Cl,[1]; [3],0.612 L/h/kg
same,Vss,[1]; [3],0.781 L/kg
same,t1/2,[1]; [3],1.5 h
same,F %,[1]; SD rats,65.9%
same,AUC,[1]; [4],10.92 µg·h/mL
same,Cmax,[1]; [4],4.073 µg/mL
same,t1/2,[1]; [4],2.8 h
same,IC50,[2]; THP-1 pyroptosis,0.1 to 0.5 µM
"CC(c1ccc2c(c1NC(=O)NS(=N)(=O)c1cc(C(C)(C)O)co1)CCC2)C1CC1 (racemic) [Compound 8-2, (RS, SC)- and (SS, SC)-N-((5-(1-cyclopropylethyl)-2,3-dihydro-1H-inden-4-yl)carbamoyl)-4-(2-hydroxypropan-2-yl)furan-2-sulfonimidamide]",AUC,[1]; [3],2.17 µg·h/mL
same,Cl,[1]; [3],0.468 L/h/kg
same,Vss,[1]; [3],0.656 L/kg
same,t1/2,[1]; [3],2.0 h
same,F %,[1]; SD rats,66.7%
same,AUC,[1]; [4],14.484 µg·h/mL
same,Cmax,[1]; [4],6.19 µg/mL
same,t1/2,[1]; [4],3.4 h
same,IC50,[2]; THP-1 pyroptosis,0.5 to 1 µM
"CC(c1ccc2c(c1NC(=O)NS(=N)(=O)c1cc(C(C)(C)O)co1)CC2)C1CC1 (racemic) [Compound 36-1, (RS, SC)- and (SS, SC)-N-((3-(1-cyclopropylethyl)bicyclo[4.2.0]octa-1(6),2,4-trien-2-yl)carbamoyl)-4-(2-hydroxypropan-2-yl)furan-2-sulfonimidamide]",AUC,[1]; [3],14.614 µg·h/mL
same,Cl,[1]; [3],0.078 L/h/kg
same,Vss,[1]; [3],0.22 L/kg
same,t1/2,[1]; [3],3.9 h
same,F %,[1]; SD rats,98.5%
same,AUC,[1]; [4],143.938 µg·h/mL
same,Cmax,[1]; [4],33.467 µg/mL
same,t1/2,[1]; [4],2.9 h
same,IC50,[2]; THP-1 pyroptosis,≤ 0.1 µM
"CC(C)(O)c1coc(S(=N)(=O)NC(=O)Nc2c(CC3CCC3)ccc3c2CCC3)c1 (single isomer, unassigned) [Compound 18-1, RS- and SS-N-((5-(cyclobutylmethyl)-2,3-dihydro-1H-inden-4-yl)carbamoyl)-4-(2-hydroxypropan-2-yl)furan-2-sulfonimidamide]",AUC,"[1]; rat, in vivo, iv, 1 mg/kg",2.226 µg·h/mL
same,Cl,"[1]; rat, in vivo, iv, 1 mg/kg",0.455 L/h/kg
same,Vss,"[1]; rat, in vivo, iv, 1 mg/kg",0.845 L/kg
same,t1/2,"[1]; rat, in vivo, iv, 1 mg/kg",2.2 h
same,AUC,"[1]; rat, in vivo, po, 10 mg/kg",20.153 µg·h/mL
same,Cmax,"[1]; rat, in vivo, po, 10 mg/kg",9.867 µg/mL
same,t1/2,"[1]; rat, in vivo, po, 10 mg/kg",2.9 h
same,IC50,[2]; THP-1 pyroptosis,0.5 to 1 µM
"C[C@@H](c1ccc2c(c1NC(=O)NS(=O)(=O)c1sc(C(C)(C)O)cc1C#N)CCC2)C1CC1 [Compound 62, (R)-3-cyano-N-((5-(1-cyclopropylethyl)-2,3-dihydro-1H-inden-4-yl)carbamoyl)-5-(2-hydroxypropan-2-yl)thiophene-2-sulfonamide]",IC50,[2]; [5],≤ 0.1 µM
"C[C@H](c1ccc2c(c1NC(=O)NS(=O)(=O)c1sc(C(C)(C)O)cc1C#N)CCC2)C1CC1 [Compound 63, (S)-3-cyano-N-((5-(1-cyclopropylethyl)-2,3-dihydro-1H-inden-4-yl)carbamoyl)-5-(2-hydroxypropan-2-yl)thiophene-2-sulfonamide]",IC50,[2]; [5],0.1 to 0.5 µM
"C[C@@H](c1ccc2c(c1NC(=O)NS(=O)(=O)c1sc(C(C)(C)O)cc1F)CCC2)C1CC1 [Compound 64, (R)-N-((5-(1-cyclopropylethyl)-2,3-dihydro-1H-inden-4-yl)carbamoyl)-3-fluoro-5-(2-hydroxypropan-2-yl)thiophene-2-sulfonamide]",IC50,[2]; [5],0.1 to 0.5 µM
"C[C@H](c1ccc2c(c1NC(=O)NS(=N)(=O)c1ccc(C3(O)COC3)s1)CCC2)C1CC1 (stereo partly drawn) [Compound 65C, N-((5-((S)-1-cyclopropylethyl)-2,3-dihydro-1H-inden-4-yl)carbamoyl)-5-(3-hydroxyoxetan-3-yl)thiophene-2-sulfonimidamide]",IC50,[2]; [5],0.1 to 0.5 µM
C[C@@H](c1ccc2c(c1NC(=O)NS(=O)(=O)c1ccc(C3(O)CCOCC3)s1)CCC2)C1CC1 [Compound 68],IC50,[2]; [5],0.1 to 0.5 µM
"CC(C)c1cccc([C@@H](C)C2CC2)c1NC(=O)NS(=O)(=O)c1cc(C(C)(C)O)co1 [Compound 71, (S)-N-((2-(1-cyclopropylethyl)-6-isopropylphenyl)carbamoyl)-4-(2-hydroxypropan-2-yl)furan-2-sulfonamide]",IC50,[2]; [5],0.1 to 0.5 µM
CC(C)c1cccc([C@H](C)C2CC2)c1NC(=O)NS(=O)(=O)c1cc(C(C)(C)O)co1 [Compound 72],IC50,[2]; [5],0.1 to 0.5 µM
"C[C@@H](c1ccc2c(c1NC(=O)NS(=O)(=O)c1cc(C(C)(C)O)co1)CCC2)C1CCC1 [Compound 79, (R)-N-((5-(1-cyclobutylethyl)-2,3-dihydro-1H-inden-4-yl)carbamoyl)-4-(2-hydroxypropan-2-yl)furan-2-sulfonamide]",IC50,[2]; [5],0.1 to 0.5 µM
"C[C@H](c1ccc2c(c1NC(=O)NS(=O)(=O)c1cc(C(C)(C)O)co1)CCC2)C1CCC1 [Compound 81, (S)-N-((5-(1-cyclobutylethyl)-2,3-dihydro-1H-inden-4-yl)carbamoyl)-4-(2-hydroxypropan-2-yl)furan-2-sulfonamide]",IC50,[2]; [5],1 to 5 µM
"CC(C)(O)c1csc(S(=N)(=O)NC(=O)Nc2c(CC3CCC3)ccc3c2CCC3)c1 (stereo not shown) [Compound 83A, N-((5-(cyclobutylmethyl)-2,3-dihydro-1H-inden-4-yl)carbamoyl)-4-(2-hydroxypropan-2-yl)thiophene-2-sulfonimidamide]",IC50,[2]; [5],≤ 0.1 µM
"CC(C)(O)c1coc(S(=O)(=O)NC(=O)Nc2c(C(C3CC3)C3CC3)ccc3c2CCC3)c1 [Compound 86, N-((5-(dicyclopropylmethyl)-2,3-dihydro-1H-inden-4-yl)carbamoyl)-4-(2-hydroxypropan-2-yl)furan-2-sulfonamide]",IC50,[2]; [5],0.5 to 1 µM
"C[C@H](c1ccc2c(c1NC(=O)NS(=O)(=O)c1cnc(C(C)(C)O)s1)CCC2)C1CC1 [Compound 88, (S)-N-((5-(1-cyclopropylethyl)-2,3-dihydro-1H-inden-4-yl)carbamoyl)-2-(2-hydroxypropan-2-yl)thiazole-5-sulfonamide]",IC50,[2]; [5],0.1 to 0.5 µM
"Cc1cc2c(c(NC(=O)NS(=O)(=O)c3cc(C(C)(C)O)co3)c1[C@H](C)C1CC1)CCC2 [Compound 90, (R)-N-((5-(1-cyclopropylethyl)-6-methyl-2,3-dihydro-1H-inden-4-yl)carbamoyl)-4-(2-hydroxypropan-2-yl)furan-2-sulfonamide]",IC50,[2]; [5],0.1 to 0.5 µM
"Cc1ccc(S(=N)(=O)NC(=O)Nc2c(C(C)C)cccc2C(C)C)cc1 (stereo not shown) [Compound 92-1, RS- and SS-N-((2,6-diisopropylphenyl)carbamoyl)-4-methylbenzenesulfonimidamide, reference compound]",IC50,[2]; THP-1 pyroptosis,> 10 µM
"Cc1ccc(S(=N)(=O)NC(=O)Nc2c(C(C)C)cccc2C(C)C)cc1 (stereo not shown) [Compound 92-2, RS- and SS-N-((2,6-diisopropylphenyl)carbamoyl)-4-methylbenzenesulfonimidamide, reference compound]",IC50,[2]; THP-1 pyroptosis,> 10 µM
"(RS, RC)- and (SS, RC)-N-((5-(1-cyclopropylethyl)-2,3-dihydro-1H-inden-4-yl-7-d)carbamoyl)-4-(2-hydroxypropan-2-yl)furan-2-sulfonimidamide [Compound 31-1]",IC50,[2]; THP-1 pyroptosis,0.1 to 0.5 µM
"(RS, SC)- and (SS, SC)-N-((5-(1-cyclobutylethyl)-2,3-dihydro-1H-inden-4-yl)carbamoyl)-4-(2-hydroxypropan-2-yl)furan-2-sulfonimidamide [Compound 82-2]",IC50,[2]; THP-1 pyroptosis,1 to 5 µM
"(RS, SC)- and (SS, SC)-N-((5-(1-cyclopropylethyl)-2,3-dihydro-1H-inden-4-yl)carbamoyl)-4-(2-hydroxypropan-2-yl-1,1,1,3,3,3-d6)furan-2-sulfonimidamide [Compound 49-1]",IC50,[2]; THP-1 pyroptosis,0.1 to 0.5 µM
"RS- and SS-N-((5-(cyclobutylmethyl)-2,3-dihydro-1H-inden-4-yl)carbamoyl)-4-(2-hydroxypropan-2-yl-1,1,1,3,3,3-d6)furan-2-sulfonimidamide [Compound 50-1]",IC50,[2]; THP-1 pyroptosis,0.5 to 1 µM
"RS- and SS-N-((5-(cyclobutylmethyl)-2,3-dihydro-1H-inden-4-yl-7-d)carbamoyl)-4-(2-hydroxypropan-2-yl)furan-2-sulfonimidamide [Compound 39-2]",IC50,[2]; THP-1 pyroptosis,1 to 5 µM
